Source: ChEMBL document CHEMBL5131516, “The Ascension of Targeted Covalent Inhibitors” (J Med Chem, 2022)

How the values were obtained:
[1] = Inhibition of wild-type EGFR phosphorylation in human NCI-H1819 cells; type: cell-based
[2] = target: T1, Tyrosine-protein kinase Tec (Homo sapiens, UniProt P42680)
T1 sequence (P42680 whole entry): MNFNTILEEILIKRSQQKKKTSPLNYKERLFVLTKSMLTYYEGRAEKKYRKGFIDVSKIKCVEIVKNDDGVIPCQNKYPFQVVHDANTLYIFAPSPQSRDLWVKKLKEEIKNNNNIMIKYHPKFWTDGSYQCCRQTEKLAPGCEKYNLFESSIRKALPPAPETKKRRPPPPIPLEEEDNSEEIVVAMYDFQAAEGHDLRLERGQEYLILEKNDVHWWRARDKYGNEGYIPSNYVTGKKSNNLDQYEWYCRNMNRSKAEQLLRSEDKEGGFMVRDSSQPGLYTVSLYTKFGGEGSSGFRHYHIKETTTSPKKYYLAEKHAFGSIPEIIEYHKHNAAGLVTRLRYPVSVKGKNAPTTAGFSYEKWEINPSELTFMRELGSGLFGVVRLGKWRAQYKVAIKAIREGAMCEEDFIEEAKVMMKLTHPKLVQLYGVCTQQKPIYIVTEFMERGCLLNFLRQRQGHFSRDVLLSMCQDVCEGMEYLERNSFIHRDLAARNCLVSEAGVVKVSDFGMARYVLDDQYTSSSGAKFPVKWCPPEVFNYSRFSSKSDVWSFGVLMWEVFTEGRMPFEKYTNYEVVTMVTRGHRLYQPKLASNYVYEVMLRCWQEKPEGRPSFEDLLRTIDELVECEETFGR
Description: Inhibition of TEC (unknown origin)

| SMILES | EC50 [1] [µM] | IC50 [2] [µM] |
| --- | --- | --- |
| COc1cc2ncnc(Nc3ccc(F)c(Cl)c3)c2cc1NC(=O)/C=C/CN1CCCCC1 [DACOMITINIB ANHYDROUS] | 0.029 |  |
| C=CC(=O)N1CCC([C@@H]2CCNc3c(C(N)=O)c(-c4ccc(Oc5ccccc5)cc4)nn32)CC1 [ZANUBRUTINIB] |  | 0.044 |
